We go through one molecule from patent US20260345641A1, “COMPOSITIONS AND USES THEREOF” (Algorae Pharmaceuticals Ltd, priority 2023, published 2026).

For this experiment, the system named is SH-S5Y5 neuroblastoma cells. Description: Cell viability (MTT) in response to Aβ, in vitro model of Alzheimer's disease. It counts as cell-based. To be noted: 20 μM Aβ, 24 h. From the text:
The SH-S5Y5 neuroblastoma cell line was used for pre-clinical analysis. The SH-S5Y5 cell line is commonly used as a model for neurodegenerative disorders as the cells can be converted to various types of functional neurons by the addition of specific compounds (see, e.g., Xicoy et al., 2017, Molecular Neurodegeneration, 12: 10). In addition, the SH-S5Y5 cell line has been used widely in experimental neurological studies, including analysis of neuronal differentiation, metabolism, and function related to neurodegenerative processes, neurotoxicity and neuroprotection (see, e.g., Datki et al., 2003, Brain Research Bulletin, 62(3): 22-229; and Xie et al., 2010, Chinese Medical Journal, 123(8): 1086-1092).
100 μL MTT reagent was added to each well (final concentration 0.5 mg/mL). Cells were then incubated at 37 °C, 5% CO2 for 4 hours. Solubilization buffer (100 μL) was then added to each well and further incubated at 37 °C, 5% CO2 for 24 hours. Absorbance was then measured by spectrophotometer at 550-600 nm and background corrected at 650 nm.
Amyloid-β (Aβ; 1 mg) was dissolved in 2 mL of 1,1,1,3,3,3-hexafluoro-2-propanol (HFIP). An additional 200 μL of HFIP was then added due to volatility. The Aβ was sealed with parafilm and vortexed for 30 seconds before aliquoting at 100 μL per 1.5 mL tube. HFIP was then evaporated in fume hood for 8 hours. Tubes were then sealed with lid and parafilm and stored at −80 °C. Prior to use, Aβ was reconstituted in DMSO to a final volume of 10% v/v for 10-15 min at RT and vortexed every 3-5 min. F-12 medium was then added to a final volume of 90% v/v. Aβ was then stored at 4 °C for 24 hours and vortexed before use.
Cells were seeded in 96-well microplates and incubated 37 °C, 5% CO2 for 24 hours.

Take `COc1cc2c(cc1OC)C(=O)C(CC1CCN(Cc3ccccc3)CC1)C2` (centres unmarked) [Donepezil]: the “Cell viability as measured by MTT” value is listed as −0.036 (Donepezil 2.5 μM); −0.021 (Donepezil 5 μM); 0.021 (Donepezil 10 μM); −0.011 (Donepezil 20 μM); −0.013 (Donepezil 30 μM).
